Measurements taken from patent US9328369B2, “Process for production of useful substance, and surfactant for use in the process” (priority 2009, dated 2016).

System: Escherichia coli(ε)
Test: Production by secretion in microbial culture system, protease expressing strain (Table 5)
Type: cell-based
Conditions: Example 12, surfactant 1 wt %
Source text: A subtilisin Carlsberg gene of a Bacillus licheniformis was amplified by the PCR method using primers 7 and 8 (Table 4). After being treated with restriction enzymes NcoI and BamHI, a PCR amplified fragment was bound to an NcoI restriction enzyme site and a BamHI restriction enzyme site of a pET-22b plasmid (product of Novagen). Then, the plasmid was transformed into a BL21 (DE3) Escherichia coli strain (product of Novagen) to form Escherichia coli (ε) that expresses protease.
Overnight cultures (1 ml) of Escherichia coli (δ) obtained in Production Example 4 and Escherichia coli (ε) obtained in Production Example 5 were respectively prepared as Comparative Example 2 and Comparative Example 4. An amount of 0.5 ml of each was inoculated in 5 ml of an LB culture solution (containing 100 mg/L of ampicillin) and was shake-cultured at 30° C. for 3 hours. In this manner, pre-culture solutions were prepared. […] The whole protein in the culture solution was analyzed by SDS-PAGE. Based on the obtained amount of the protein band, the recombinant protein was quantified.
Performance of this processes for several times clarified the proportional relationship between the turbidity of the culture solution and the dried cell density. Therefore, the dried cell density was obtained from the measured turbidity in each of Comparative Examples 2 to 4 and Examples 2 to 14. […]

Cured palm oil fatty acid amidopropyl dimethyl aminoacetate betaine [A-6]
Turbidity: 95
Dried cell density (obtained from turbidity): 26.6 g/L
Quantitative value of produced recombinant protein (supernatant, SDS-PAGE): 0.37 g/L
